Source: patent US9822336B2, “Blastoid, cell line based artificial blastocyst” (Universiteit Maastricht, priority 2013, dated 2017)

Key:
Assay type in all cases: cell-based, mouse
ES-TS cell clusters [1] = test: Cavitation of ES-TS cell clusters (yield of cavitated blastoids); conditions: for yield of blastoids cavitation: FIG. 4i, added to CHIR99021 3 uM, versus control with CHIR99021 3 uM only; for yield of cavitated blastoids / cavitation: FIG. 4h
Description: FIG. 4c: […], The yield of cavitated blastoids is described by the percentage of ES-TS cell clusters that were cavitated after 96 hours of culture, thus forming an artificial blastocyst or blastoid. […]
The efficiency of blastoid formation is measured as the percentage of cavitated structures with (1) an external cellular layer expressing the transcription factors CDX2, Eomes and GATA3 and (2) an internal cellular aggregate expressing the transcription factors Oct4 and Sox2 and at least partly Nanog.
The formation of a cavity is assessed by the formation of a volume within the aggregate that is not occupied by cellular nucleus. The formation of a cavity is preferably assessed using the cross-sectional section of a cellular aggregate stained with a nuclear-specific dye (for example DAPI).
• Double layer formation: the formation of an (at least) double layered cell aggregate with an external layer of TS cells and an inner layer of ES cells is evaluated using transgenic cell lines. Specifically, ES cells were transfected with Histone 2B and a Red Fluorescent Protein under the control of a cytomegalovirus promoter and clonally derived. The H2B-RFP ES cells are thus constitutively expressing a red fluorescence within their nucleus which allows for their tracking. • TS cells were derived from a mouse constitutively expressing Green Fluorescent Protein (GFP) under the control of a cytomegalovirus promoter in all cells. The GFP TS cells are thus expressing a green fluorescence in their cytoplasma which allows for their tracking. • The formation of a double-layered aggregate is thus assessed by observing a green outer layer of cells and a red inner layer of cells. The efficiency of engulfment is determined as the percentage of green-colored projection area (representing the TS cell layer) that overlaps with an artificial 3-pixel-wide ring drawn around the red-colored projection area (representing the inner aggregate of ES cells) after 24 hours of culturing the ES-TS cell clusters. The said efficiency of engulfment described in FIG. 4 represents the average value taken from approximately 200 ES-TS cell clusters. • Cavitation: The formation of a cavity is assessed by the formation of a volume within the aggregate that is not occupied by cellular nucleus. The formation of a cavity is preferably assessed using the cross-sectional section of a cellular aggregate stained with a nuclear-specific dye (for example DAPI). […] The expression of cdx2 is assessed as the number of GFP positive cells with a cdx2 positive nucleus per 10 μm microscopic section. The expression of the transcription factors Oct4 and Nanog is assessed by conventional immunocytochemistry in ES-TS aggregates including H2B-RFP expressing ES cells. The expression of Oct4 and Nanog is assessed as the number of H2B-RFP positive cells with an Oct4 or Nanog positive nucleus per 10 μm microscopic section. Pictoral Summary of the Procedure for Blastoid Formation: […]

[2] = test system: Cdx2 expression in trophoblast stem cells of ES-TS aggregates; test: Cdx2 expression by CDX2 immunostaining; conditions: CDX2 immunostaining (FIG. 4g)
Description: • Double layer formation: the formation of an (at least) double layered cell aggregate with an external layer of TS cells and an inner layer of ES cells is evaluated using transgenic cell lines. Specifically, ES cells were transfected with Histone 2B and a Red Fluorescent Protein under the control of a cytomegalovirus promoter and clonally derived. The H2B-RFP ES cells are thus constitutively expressing a red fluorescence within their nucleus which allows for their tracking. • TS cells were derived from a mouse constitutively expressing Green Fluorescent Protein (GFP) under the control of a cytomegalovirus promoter in all cells. The GFP TS cells are thus expressing a green fluorescence in their cytoplasma which allows for their tracking. • The formation of a double-layered aggregate is thus assessed by observing a green outer layer of cells and a red inner layer of cells. The efficiency of engulfment is determined as the percentage of green-colored projection area (representing the TS cell layer) that overlaps with an artificial 3-pixel-wide ring drawn around the red-colored projection area (representing the inner aggregate of ES cells) after 24 hours of culturing the ES-TS cell clusters. […] The formation of a cavity is preferably assessed using the cross-sectional section of a cellular aggregate stained with a nuclear-specific dye (for example DAPI). […]

[3] = test system: inner cell mass (ICM) of blastoids; test: Size of inner cell mass (ICM) in cavitated blastoids, projection area; conditions: up to a concentration of 1000 μM (FIG. 4f)
Excerpt: FIG. 4d: size of inner cell mass (ICM) as a function of the average number of ES-cells seeded per microwell. Size of ICM, measured as the projection area of the ES cell cluster inside the cavitated blastoid, increases with increasing numbers of ES cells seeded per microwell.
The size of the inner cell mass (ICM) depends on the average number of ES-cells seeded, and increases with the number of ES-cells seeded per microwell as described in FIG. 4. The size as defined by its projection area is generally between 1000 and 5000 um^2, preferably between 2000 and 4500 um^2. The size is conveniently expressed by determining the projection area (in um^2) of the ICM through light microscopy.

ES-TS cell clusters [4] = test: Efficiency of engulfment during formation of ES-TS cell clusters; conditions: at higher concentration of Y27632; after 24 hours of culture (FIG. 4a)
Description: Mouse TS-cells were seeded at 17 cells/microwell in 150 μL B27N2 medium. After 20 minutes, 1 ml of B27N2 medium was added that included 10% FBS, Y27632 20 μM, 8Br-cAMP (1 mM), 007-AM (1 nM) and CHIR 3 μM, FGF4 15 ng/ml, Tgfb1 5 ng/ml, IGF2, 10 ng/ml, estradiol 10 ng/ml. The cells were placed in an incubator set at 37° Celsius to form the ES-TS cell cluster. • Double layer formation: the formation of an (at least) double layered cell aggregate with an external layer of TS cells and an inner layer of ES cells is evaluated using transgenic cell lines. […] The H2B-RFP ES cells are thus constitutively expressing a red fluorescence within their nucleus which allows for their tracking. • TS cells were derived from a mouse constitutively expressing Green Fluorescent Protein (GFP) under the control of a cytomegalovirus promoter in all cells. The GFP TS cells are thus expressing a green fluorescence in their cytoplasma which allows for their tracking. • The formation of a double-layered aggregate is thus assessed by observing a green outer layer of cells and a red inner layer of cells. […] The said efficiency of engulfment described in FIG. 4 represents the average value taken from approximately 200 ES-TS cell clusters. • Cavitation: The formation of a cavity is assessed by the formation of a volume within the aggregate that is not occupied by cellular nucleus. […]

Compound: CC(C)[C@H]1C(=O)N[C@H](CO)Cc2c[nH]c3cccc(c23)N1C [Indolactam V]
- yield of blastoids cavitation (ES-TS cell clusters [1]): increase the yield of blastoids cavitation
- yield of cavitation (ES-TS cell clusters [1]; Indolactam V 0.1-10 uM, for example 1 uM): increases the yield of cavitation

Compound: IGF2: a protein and a growth factor known in the art to activate the Akt pathway
- Cdx2 expression [2]: positively correlates with an increase of Cdx2 expression

Compound: Oc1nc(-c2ccc(C(F)(F)F)cc2)nc2c1CSCC2 [XAV939]
- yield of cavitated blastoids / cavitation (ES-TS cell clusters [1]; CHIR99021 at 3 uM): prevents the cavitation of blastoids

Compound: Nc1ncnc2c1nc(Br)n2[C@@H]1O[C@@H]2COP(=O)(O)O[C@H]2[C@H]1O [8Br-cAMP]
- size of ICM [3]: positively correlates with an increase in the size of ICM
- yield of cavitation (ES-TS cell clusters [1]; 8Br-cAMP 0.1-10 mM, for example 1 mM): increases the yield of cavitation
- yield of blastoids cavitation (ES-TS cell clusters [1]): increase the yield of blastoids cavitation

Compound: C[C@@H](N)[C@H]1CC[C@H](C(=O)Nc2ccncc2)CC1 [Y27632, (1R,4r)-4-((R)-1-aminoethyl)-N-(pyridin-4-yl)cyclohexanecarboxamide]
- efficiency of engulfment (ES-TS cell clusters [4]): increase in efficiency of engulfment

Compound: Cc1c[nH]c(-c2cnc(NCCNc3ccc(C#N)cn3)nc2-c2ccc(Cl)cc2Cl)n1 [CHIR99021, 6-{2-[4-(2,4-dichloro-phenyl)-5-(4-methyl-1H-imidazol-2-yl)-pyrimidin-2-ylamino]-ethylamino}-nicotinonitrile]
- blastoid yield (ES-TS cell clusters [1]; CHIR99021 at 3 uM): 10%
- blastoid yield (ES-TS cell clusters [1]; CHIR99021 at 20 uM): ~30%
- yield of cavitated blastoids / cavitation (ES-TS cell clusters [1]; CHIR99021 at 3 uM): increases the yield of cavitated blastoids
- yield of cavitated blastoids (ES-TS cell clusters [1]; increasing concentrations (FIG. 4e)): positively correlate with an increase in the yield of cavitated blastoids
